Assays:
Homo sapiens [1] = organism: Homo sapiens; assay: Selectivity for cathepsin S over cathepsin K
Homo sapiens [2] = organism: Homo sapiens; assay: Selectivity for cathepsin S over cathepsin B
Homo sapiens [3] = organism: Homo sapiens; assay: Selectivity for cathepsin S over cathepsin L

Activity (Homo sapiens [1]): > 100
Activity (Homo sapiens [2]): > 1000
Activity (Homo sapiens [3]): > 1000
SMILES: CC(C)Cc1ccc(-c2ccccc2OCC=O)c(F)c1F
